Experiment [1] has as its system Acinetobacter baumannii. Put plainly: Molecular phenotypic antimicrobial susceptibility test (extraction/DNA purification prior to PCR). The experiment is classed as cell-based. The protocol: Detection of Molecular Phenotypic Antimicrobial Susceptibility. Disclosed herein are the methods for the detection of phenotypic antimicrobial susceptibility via molecular methods. The present invention describes how a specimen 100 with a known microbial load is incubated and then exposed to a panel of antimicrobial agents to determine sensitivity (prevention of growth) or resistance (allowance of growth) to the specific antimicrobial agents tested utilizing molecular methods. Sample Collection. Specimens 100 are collected from patients using sterile collection processes that are employed in routine clinical care. Specimens are transported to the testing facility in boric acid preservative. […] The specimens 100 are put through a pathogen identification process using PCR technology (e.g., using the first sample 104). The process for pathogen isolation includes steps of harvesting the pathogen (e.g., via centrifugation), isolating pathogen DNA via a DNA isolation and/or purification kit, and performing PCR on the pathogen DNA via PCR components (e.g., primers, enzymes, buffers) as would be known to the skilled artisan. Simultaneously, an additional aliquot of the same specimen (e.g., the second sample 108) is placed with liquid culture media and incubated for 4-6 hours. This aliquot is used for antimicrobial susceptibility testing if indicated based on the pathogen detection results. […] Specimens 100 with lower pathogen loads could also be utilized in the antibiotic susceptibility phase of testing with or without a longer incubation period. […] Antimicrobial solutions are prepared at known concentrations. The specific antimicrobials and their concentrations are selected based on the pathogen of interest and the described antimicrobial resistance breakpoints for that specimen pathogen and antimicrobial combination. These antimicrobials have been selected based on those commonly utilized by healthcare providers in routine clinical care for the specific type of suspected infection. The number and types of antimicrobials utilized can be customized based on the infection source, pathogen detected, patient-specific factors such as allergies or other health conditions (e.g., chronic kidney disease or concurrent medication use), or healthcare provider preferences such as antimicrobial availability or cost. The antimicrobial solutions are prepared in liquid culture media (such as Muller Hinton Broth) to achieve the desired antimicrobial concentration and are then stored at −80° C. until use. For a given specimen, each antimicrobial is tested at a single or multiple antimicrobial concentration(s) which is its established breakpoints for sensitivity. The antimicrobial solutions are prepared and plated out for each specific pathogen. This allows ease of use on the day of testing after defrosting the plate 112. Table 1, which illustrates the results of molecular phenotypic antimicrobial susceptibility testing when more than one organism is present in the source specimen, provides an example of an antimicrobial plate 112 prepared for this purpose. Of note, control wells containing only culture media are present on all plates 112. This allows for evaluation of pathogen load when no antimicrobial is present. Specimen Exposure to Antimicrobial Agents. The 1 mL aliquot of the specimen 100 previously mixed with culture media and incubated is obtained. Using optical density measurements as a guide, the specimen 100 is diluted to 0.5 McFarland. The specimen 100 is then placed into the previously prepared antimicrobial susceptibility testing plate 112. Each plate 112 is prepared for a single specimen 100 for a specified pathogen based on its detection. For example, if the specimen 100 has more than one pathogen detected that needs different antimicrobial concentrations for exposure due to different minimum inhibitory concentration breakpoints for one or more organisms, then more than one antimicrobial exposure plate 112 may be needed. […]

In experiment [2] the test system is S. aureus. As to the kind of experiment: Traditional culture-based antimicrobial susceptibility test. The experiment is classed as cell-based, Staphylococcus aureus. The following applies: S. aureus isolate NR-46412 HIP13170. As to the method: (§1) Table 5 illustrates the results of an example antimicrobial agent susceptibility test of the current application versus a traditional culture-based antimicrobial agent susceptibility test for multiple specimens with different pathogens, in accordance with one or more embodiments of the disclosure. These specimens were tested with direct PCR (e.g., no extraction DNA purification step prior to PCR). As in Tables 1, 2, and 3, the results of the test of the current application are similar to the results from the traditional test.
(§2) Result Reporting to Healthcare Providers. The results from the antimicrobial exposure are reported to the ordering healthcare provider. This information can be utilized by the healthcare provider when selecting an antimicrobial regimen for their individual patient based on these individual specimen results and patient specific factors. […] The current standard of care for antimicrobial susceptibility testing involves the growth, isolation, and exposure of pathogens to antimicrobials. This traditional culture and sensitivity process can take multiple days to obtain results, limiting the ability of healthcare providers to receive timely results to make actionable changes in patient care or management. Healthcare providers desire a method to obtain antimicrobial susceptibility results with quicker turn-around-time. This application discloses a molecular-based phenotypic antimicrobial susceptibility method which involves pathogen exposure to a panel of antimicrobial agents at their specified minimum inhibitory concentration breakpoints for sensitivity. This method allows for more timely antimicrobial susceptibility results.

Experiment [3] relates to P. aeruginosa. The experiment is described as above. The experiment is classed as cell-based, Pseudomonas aeruginosa. The note with it: P. aeruginosa isolate MRSN1938. As to the method:
as §1, §2

Setting [4] is: A. baumannii isolate 1, Ct at control (average) 18.811.
The mark [5] stands for this setting: A. baumannii isolate 1, at sensitive breakpoint.
[6] abbreviates: A. baumannii isolate 2, Ct at control (average) 18.763.
[7] abbreviates: A. baumannii isolate 2, at sensitive breakpoint.
Where [8] appears, read: A. baumannii isolate 3, Ct at control (average) 18.799.
The mark [9] stands for this setting: A. baumannii isolate 3, at sensitive breakpoint.
Where [10] appears, read: A. baumannii isolate 4, Ct at control (average) 18.061.
The mark [11] stands for this setting: A. baumannii isolate 4, at sensitive breakpoint.
[12] abbreviates: A. baumannii isolate 5, Ct at control (average) 18.191.
The mark [13] stands for this setting: A. baumannii isolate 5, at sensitive breakpoint.

The record followed here is patent publication US20250290117A1, “MOLECULAR PHENOTYPIC ANTIMICROBIAL SUSCEPTIBILITY TESTING” (priority 2024, published 2025).

Take `CO/N=C(\C(=O)N[C@@H]1C(=O)N2C(C(=O)O)=C(CSc3nc(=O)c(=O)[nH]n3C)CS[C@H]12)c1csc(N)n1` [Ceftriaxone]: the “Ct at Sensitive Breakpoint” value in experiment [1] (setting [4]) is 16.497; in experiment [1] (setting [6]) it was 19.075; in experiment [1] (setting [8]), 19.667; in experiment [1] (setting [10]), 18.774; in experiment [1] (setting [12]), 18.571. Besides, the “Molecular Antimicrobial Susceptibility Result” value in experiment [1] (setting [5]), in experiment [1] (setting [7]), in experiment [1] (setting [9]), in experiment [1] (setting [11]) and in experiment [1] (setting [13]) was “Resistant” throughout.
With `CN[C@H](CC(C)C)C(=O)N[C@H]1C(=O)N[C@@H](CC(N)=O)C(=O)N[C@H]2C(=O)N[C@H]3C(=O)N[C@H](C(=O)N[C@H](C(=O)O)c4cc(O)cc(O)c4-c4cc3ccc4O)[C@H](O)c3ccc(c(Cl)c3)Oc3cc2cc(c3O[C@@H]2O[C@H](CO)[C@@H](O)[C@H](O)[C@H]2O[C@H]2C[C@](C)(N)[C@H](O)[C@H](C)O2)Oc2ccc(cc2Cl)[C@H]1O` [Vancomycin], in experiment [2], the “Traditional Culture Result” value is recorded as “Resistant”.
`C[C@@H](O)[C@H]1C(=O)N2C(C(=O)O)=C(S[C@@H]3CN[C@H](C(=O)N(C)C)C3)[C@H](C)[C@H]12` [Meropenem]: the “Ct at Sensitive Breakpoint” value in experiment [1] (setting [4]) was found to be 18.123; in experiment [1] (setting [6]) it was 19.761; in experiment [1] (setting [8]) it was 18.077; in experiment [1] (setting [10]), 17.553; in experiment [1] (setting [12]) it was 20.173. Besides, the “Molecular Antimicrobial Susceptibility Result” value in experiment [1] (setting [5]), in experiment [1] (setting [7]), in experiment [1] (setting [9]), in experiment [1] (setting [11]) and in experiment [1] (setting [13]) was “Resistant” each time. The “Traditional Culture Result” value in experiment [3] is recorded as “Resistant*”.
Take Trimethoprim/Sulfamethoxazole [TMP/SMX]: the “Ct at Sensitive Breakpoint” value is 22.888 in experiment [1] (setting [4]); 22.916 in experiment [1] (setting [6]); 22.407 in experiment [1] (setting [8]); 23.297 in experiment [1] (setting [10]); 22.742 in experiment [1] (setting [12]). Moreover, the “Molecular Antimicrobial Susceptibility Result” value in experiment [1] (setting [5]), in experiment [1] (setting [7]), in experiment [1] (setting [9]), in experiment [1] (setting [11]) and in experiment [1] (setting [13]) was “Sensitive (Antimicrobial wells with pathogen load detected below the control wells (typically >2 cycle thresholds later) may be reported as Sensitive)” each time. Moreover, the “Traditional Culture Result” value in experiment [2] is “Sensitive”.
With Ampicillin/Sulbactam, the “Ct at Sensitive Breakpoint” value was 19.447 in experiment [1] (setting [10]) and 19.682 in experiment [1] (setting [12]). The “Molecular Antimicrobial Susceptibility Result” value in experiment [1] (setting [11]) and in experiment [1] (setting [13]) was “Sensitive (Antimicrobial wells with pathogen load detected below the control wells (typically >2 cycle thresholds later) may be reported as Sensitive)” each time.
As to Gentamicin, the “Ct at Sensitive Breakpoint” value in experiment [1] (setting [10]) was 19.380; in experiment [1] (setting [12]) it was 19.399. Also, the “Molecular Antimicrobial Susceptibility Result” value in experiment [1] (setting [11]) and in experiment [1] (setting [13]) was “Sensitive (Antimicrobial wells with pathogen load detected below the control wells (typically >2 cycle thresholds later) may be reported as Sensitive)” throughout. Moreover, the “Traditional Culture Result” value in experiment [2] is on record as “Resistant”.
Regarding `CO/N=C(\C(=O)N[C@@H]1C(=O)N2C(C(=O)[O-])=C(C[N+]3(C)CCCC3)CS[C@H]12)c1csc(N)n1` [Cefepime], the “Ct at Sensitive Breakpoint” value is 19.944 in experiment [1] (setting [4]); 19.194 in experiment [1] (setting [6]); 19.873 in experiment [1] (setting [8]); 18.955 in experiment [1] (setting [10]); 18.489 in experiment [1] (setting [12]). Also, the “Molecular Antimicrobial Susceptibility Result” value in experiment [1] (setting [5]) is listed as “Resistant”; in experiment [1] (setting [7]), “Resistant”; in experiment [1] (setting [9]), “Sensitive (Antimicrobial wells with pathogen load detected below the control wells (typically >2 cycle thresholds later) may be reported as Sensitive)”; in experiment [1] (setting [11]) it was “Resistant”; in experiment [1] (setting [13]) it was “Resistant”. Besides, the “Traditional Culture Result” value in experiment [3] was “Sensitive”.
For the compound `C[C@H]1COc2c(N3CCN(C)CC3)c(F)cc3c(=O)c(C(=O)O)cn1c23` [Levofloxacin], the “Ct at Sensitive Breakpoint” value turned out to be 17.268 in experiment [1] (setting [4]); 19.405 in experiment [1] (setting [6]); 18.253 in experiment [1] (setting [8]); 18.709 in experiment [1] (setting [10]); 19.052 in experiment [1] (setting [12]). Also, the “Molecular Antimicrobial Susceptibility Result” value in experiment [1] (setting [5]), in experiment [1] (setting [7]), in experiment [1] (setting [9]), in experiment [1] (setting [11]) and in experiment [1] (setting [13]) was “Resistant” throughout.
On to Piperacillin/Tazobactam, for which the “Ct at Sensitive Breakpoint” value in experiment [1] (setting [4]) was found to be 17.127; in experiment [1] (setting [6]) it was 19.691; in experiment [1] (setting [8]) it was 18.647; in experiment [1] (setting [10]) it was 16.207; in experiment [1] (setting [12]), 17.081. Besides, the “Molecular Antimicrobial Susceptibility Result” value in experiment [1] (setting [5]), in experiment [1] (setting [7]), in experiment [1] (setting [9]), in experiment [1] (setting [11]) and in experiment [1] (setting [13]) was “Resistant” throughout. Also, the “Traditional Culture Result” value in experiment [3] was “Sensitive”.
Regarding `CO[C@@]1(NC(=O)Cc2cccs2)C(=O)N2C(C(=O)O)=C(COC(N)=O)CS[C@@H]21` [Cefoxitin], the “Traditional Culture Result” value in experiment [2] is recorded as “Resistant”.
